Results reported in patent US5393775A, “Benzopyran compounds” (Adir et Compagnie, priority 1992, dated 1995).

Key:
[1] = tested on: rat brain homogenates (spontaneous peroxidation of lipids); assay: spontaneous lipid peroxidation on rat brain homogenates; assay type: biochemical; conditions: at 10^-5 M, 60 minutes at 37° C.
Experimental: (§1) The action of the compounds of the invention, which are capable of trapping .OH radicals, was studied, on the one hand, on the spontaneous peroxidation of lipids and, on the other hand, on the peroxidation induced by the Fe^2+ /ascorbate (10 μm/250 μm) system on rat brain homogenates.
(§2) During the measurement of the spontaneous lipid peroxidation, the rat brain homogenates are placed in the presence or in the absence of the compounds to be tested for 60 minutes at 37° C. The reaction is halted at 0° C. and the quantitative determination of malondialdehyde is carried out using thiobarbituric acid by the method of Yagi, K., (1976), Biochem. Med., 15, 212-216. Lipid peroxidation is determined by the substances reacting with thiobarbituric acid expressed in nanomoles of malondialdehyde.
(§3) The concentrations of the tested compounds which inhibit by 50 % the peroxidation of the substrate or the antioxidizing activity of the compounds of the invention at a concentration of 10^-5 M are calculated.

[2] = tested on: lipoxygenase of human polynuclear cells (LTB4); assay: inhibition of the synthesis of LTB4 (lipoxygenase) in human polynuclear cells activated by A23187; assay type: cell-based; conditions: for inhibition at 10 µM: at 10^-5 M; for IC50: read-out: INHIBITION OF THE SYNTHESIS OF LTB4, CON[…] BY 50% (IC50 in M), read-out: INHIBITION OF THE SYNTHESIS OF LTB4, CONCENTRATION INHIBITING SYNTHESIS BY 50% (IC50 in M)
Experimental: The inhibitory activity of the compounds of formula (I) used according to the invention on the synthesis of eicosanoids is measured on washed human polynuclear cells, in the presence or in the absence of the compound to be tested, after activation of these cells by calcium (calcium ionophore A23187).
The production of the main eicosanoid, resulting from lipoxygenase, produced by human polynuclear cells: leukotriene B4 (LTB4), is measured by a radioimmunological test.

[3] = tested on: rat brain homogenates (peroxidation induced by the Fe^2+ /ascorbate system); assay: lipid peroxidation induced by Fe^2+/ascorbate on rat brain homogenates; assay type: biochemical; conditions: at 10^-5 M, 60 minutes at 37° C.
Experimental: as §1, §2
During the measurement of the induced lipid peroxidation, the methodology is identical to the above with the exception of the addition to the homogenate of the radical inductive system: Fe^2+ /ascorbate. The reference substances are probucol and vitamin E.
as §3

Row | Compound | INHIBITION OF THE PEROXIDATION WITH RESPECT TO THE CONTROL, SPONTANEOUS PEROXIDATION [1] | inhibition at 10 µM [2] | IC50 [2] | INHIBITION OF THE PEROXIDATION WITH RESPECT TO THE CONTROL, INDUCED PEROXIDATION [3]
1 | Cc1c(C)c2c(c(C)c1O)CCC(C)(C(=S)Nc1ccccc1)O2 (stereo not drawn) [Example 2, N-phenyl-6-hydroxy-3,4-dihydro-2,5,7,8-tetramethyl-2H-1-benzopyran-2-thiocarboxamide] | 100 | > 99% | 300 nM | 100
2 | Cc1cc(C)c(NC(=S)C2(C)CCc3c(C)c(O)c(C)c(C)c3O2)cc1C (stereo not drawn) [Example 4, N-(2,4,5-trimethylphenyl)-6-hydroxy-3,4-dihydro-2,5,7,8-tetramethyl-2H-1-benzopyran-2-thiocarboxamide] | 98 | > 99% | 500 nM | 100
3 | Cc1cc(C)nc(NC(=S)C2(C)CCc3c(C)c(O)c(C)c(C)c3O2)c1 (stereo not drawn) [Example 6, N-(4,6-dimethylpyrid-2-yl)-6-hydroxy-3,4-dihydro-2,5,7,8-tetramethyl-2H-1-benzopyran-2-thiocarboxamide] |  | > 99% | 600 nM | 
4 | COc1cc(NC(=S)C2(C)CCc3c(C)c(O)c(C)c(C)c3O2)cc(OC)c1OC (stereo not drawn) [Example 8, N-(3,4,5-trimethoxyphenyl)-6-hydroxy-3,4-dihydro-2,5,7,8-tetramethyl-2H-1-benzopyran-2-thiocarboxamide] |  | > 99% |  | 
5 | Cc1cccc(C)c1NC(=S)C1(C)CCc2c(C)c(O)c(C)c(C)c2O1 (stereo not drawn) [Example 26, N-(2,6-dimethylphenyl)-6-hydroxy-3,4-dihydro-2,5,7,8-tetramethyl-2H-1-benzopyran-2-thiocarboxamide] | 99 | > 99% | 500 nM | 100
6 | Cc1c(C)c2c(c(C)c1O)CCC(C)(C(=S)N1CCN(c3ccccc3)CC1)O2 (stereo not drawn) [Example 84, 1-[(3,4-dihydro-6-hydroxy-2,5,7,8-tetramethyl-2H-1-benzopyran-2-yl)thiocarbonyl]-4-phenylpiperezine] |  | > 99% | 300 nM | 
7 | Cc1c(C)c2c(c(C)c1O)CCC(C)(C(=S)N1CCN(c3ccccn3)CC1)O2 (stereo not drawn) [Example 86, 1-[(3,4-dihydro-6-hydroxy-2,5,7,8-tetramethyl-2H-1-benzopyran-2-yl)thiocarbonyl]-4-(2-pyridyl)piperazine] |  | > 99% | 200 nM | 
8 | Cc1c(C)c2c(c(C)c1O)CCC(C)(C(=S)N1CCN(c3ccc(F)cc3)CC1)O2 (stereo not drawn) [Example 88, 1-[(3,4-dihydro-6-hydroxy-2,5,7,8-tetramethyl-2H-1-benzopyran-2-yl)thiocarbonyl]-4-(4-fluorophenyl)piperazine] |  | > 99% | 100 nM | 
9 | Cc1c(C)c2c(c(C)c1O)CCC(C)(C(=S)N1CCN(c3ccc(Cl)cc3)CC1)O2 (stereo not drawn) [Example 92, 1-[(3,4-dihydro-6-hydroxy-2,5,7,8-tetramethyl-2H-1-benzopyran-2-yl)thiocarbonyl]-4-(4-chlorophenyl)piperazine] |  | > 99% | 200 nM | 
10 | COc1ccc(CN2CCN(C(=S)C3(C)CCc4c(C)c(O)c(C)c(C)c4O3)CC2)c(OC)c1OC (stereo not drawn) [Example 94, 1-[(3,4-dihydro-6-hydroxy-2,5,7,8-tetramethyl-2H-1-benzopyran-2-yl)thiocarbonyl]-4-(2,3,4-trimethoxybenzyl)piperazine] |  | > 99% | 300 nM | 
11 | Cc1c(C)c2c(c(C)c1O)CCC(C)(C(=S)N1CCN(C(O)(c3ccccc3)c3ccccc3)CC1)O2 (stereo not drawn) [Example 98, 1-[(3,4-dihydro-6-hydroxy-2,5,7,8-tetramethyl-2H-1-benzopyran-2-yl)thiocarbonyl]-4-(1-hydroxy-1,1-diphenylmethyl)piperazine] |  | > 99% | 1300 nM | 
